Read-outs that look alike come from different tables or passages of the source.
Target: α2β1 integrin (Homo sapiens, UniProt P05556+P17301)
Test: Cell adhesion assay
Format: cell-based
Settings: for Emax: read-out: Emax in cell adhesion assay
[1] = read-out: EC50 in cell adhesion assay

Sequence of α2β1 integrin (P17301 30-1181): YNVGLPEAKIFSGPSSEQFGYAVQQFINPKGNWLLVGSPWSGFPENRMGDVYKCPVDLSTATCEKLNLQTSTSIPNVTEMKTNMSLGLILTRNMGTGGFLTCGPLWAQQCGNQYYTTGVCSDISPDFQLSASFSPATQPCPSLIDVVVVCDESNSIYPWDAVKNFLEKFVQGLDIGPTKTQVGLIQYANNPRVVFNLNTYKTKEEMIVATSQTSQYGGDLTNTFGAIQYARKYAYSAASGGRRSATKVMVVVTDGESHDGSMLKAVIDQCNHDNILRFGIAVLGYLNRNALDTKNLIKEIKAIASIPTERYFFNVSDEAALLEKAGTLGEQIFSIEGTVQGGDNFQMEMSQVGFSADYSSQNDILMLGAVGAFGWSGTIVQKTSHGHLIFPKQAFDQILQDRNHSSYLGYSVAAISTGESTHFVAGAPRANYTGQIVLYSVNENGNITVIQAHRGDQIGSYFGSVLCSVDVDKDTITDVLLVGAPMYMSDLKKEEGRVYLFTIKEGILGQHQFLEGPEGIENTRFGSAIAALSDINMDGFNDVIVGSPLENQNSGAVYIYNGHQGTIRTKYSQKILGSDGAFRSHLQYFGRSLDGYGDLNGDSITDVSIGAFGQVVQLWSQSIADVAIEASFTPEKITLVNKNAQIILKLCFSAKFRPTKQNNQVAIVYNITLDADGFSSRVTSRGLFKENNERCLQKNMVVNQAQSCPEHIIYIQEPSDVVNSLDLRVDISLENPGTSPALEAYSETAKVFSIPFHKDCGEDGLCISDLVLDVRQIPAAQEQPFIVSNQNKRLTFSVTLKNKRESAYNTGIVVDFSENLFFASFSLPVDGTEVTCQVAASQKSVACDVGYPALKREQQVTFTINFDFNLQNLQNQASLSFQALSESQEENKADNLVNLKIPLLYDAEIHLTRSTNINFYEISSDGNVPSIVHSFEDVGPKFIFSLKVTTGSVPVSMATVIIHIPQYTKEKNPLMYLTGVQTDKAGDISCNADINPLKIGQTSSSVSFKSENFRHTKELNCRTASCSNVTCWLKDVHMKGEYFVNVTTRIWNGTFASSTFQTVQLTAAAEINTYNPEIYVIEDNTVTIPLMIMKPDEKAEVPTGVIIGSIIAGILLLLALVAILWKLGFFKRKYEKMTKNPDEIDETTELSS
Sequence of α2β1 integrin (P05556 21-798 partner): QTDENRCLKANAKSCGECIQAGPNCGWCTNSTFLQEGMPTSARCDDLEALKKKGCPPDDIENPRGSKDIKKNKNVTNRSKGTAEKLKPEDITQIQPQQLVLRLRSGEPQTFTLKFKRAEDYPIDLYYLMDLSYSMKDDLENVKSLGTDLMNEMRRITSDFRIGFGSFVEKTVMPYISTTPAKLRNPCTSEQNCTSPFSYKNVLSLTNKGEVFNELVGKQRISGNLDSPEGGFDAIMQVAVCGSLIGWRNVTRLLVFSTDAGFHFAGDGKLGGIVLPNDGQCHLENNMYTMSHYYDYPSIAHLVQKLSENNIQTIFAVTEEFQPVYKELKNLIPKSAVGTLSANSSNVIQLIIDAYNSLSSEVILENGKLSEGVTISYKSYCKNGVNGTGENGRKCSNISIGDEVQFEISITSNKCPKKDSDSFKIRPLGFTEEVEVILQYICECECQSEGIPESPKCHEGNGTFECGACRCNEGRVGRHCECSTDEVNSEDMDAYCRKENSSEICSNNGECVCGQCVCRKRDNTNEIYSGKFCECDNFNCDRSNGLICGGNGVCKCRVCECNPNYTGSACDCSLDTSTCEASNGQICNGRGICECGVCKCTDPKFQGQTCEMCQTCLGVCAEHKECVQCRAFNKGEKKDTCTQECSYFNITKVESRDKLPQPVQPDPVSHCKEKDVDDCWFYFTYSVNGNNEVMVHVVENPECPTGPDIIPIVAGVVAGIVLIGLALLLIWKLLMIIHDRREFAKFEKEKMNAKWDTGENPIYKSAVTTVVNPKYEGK

| Emax (concentration not given) [%] | EC50 [1] [µM] | SMILES | also measured |
| --- | --- | --- | --- |
| 76 | 25 | Cc1nc2cc(NS(=O)(=O)c3cccc(-c4ccc(F)cc4)c3)ccc2o1 [Compound 190, 4′-fluoro-biphenyl-3-sulfonic acid (2-methyl-benzooxazol-5-yl)-amide] |  |
|  | 20 | CN(C)c1ccc(NS(=O)(=O)c2cccc(-c3cccc(O)c3)c2)cc1 [Compound 205] | Emax at 50 µM: 84% |
| 50 | 45 | O=S(=O)(Nc1ccc(-n2ccnc2)cc1)c1cccc(-c2ccc(F)cc2)c1 [Compound 300] |  |
| 81 | 36 | Cc1nc2cc(NS(=O)(=O)c3cccc(-c4ccc(F)cc4)c3)ccc2s1 [Compound 188, 4′-fluoro-biphenyl-3-sulfonic acid (2-methyl-benzothiazol-5-yl)-amide] |  |
| 86 | 19 | CN(C)c1ccc(NS(=O)(=O)c2cccc(-c3cccc(F)c3)c2)cc1 [Compound 203] |  |
|  | 7 | CN(C)c1ccc(N(C)S(=O)(=O)c2cccc(-c3ccc(F)cc3)c2)cc1 [Compound 282, 4′-fluoro-biphenyl-3-sulfonic acid (4-dimethylaminophenyl)-methylamide] | Emax at 50 µM: 59% |
|  | 36 | Cc1cc(C)nc(Nc2ccc(NS(=O)(=O)c3cccc(-c4ccc(F)cc4)c3)cc2)n1 [Compound 201] | Emax at 50 µM: 64% |
| 77 | 20 | COc1ccc(-c2cccc(S(=O)(=O)Nc3ccc(N(C)C)cc3)c2)cc1OC [Compound 142, [4-(3′,4′-dimethoxy-biphenyl-3-sulfonylamino)-phenyl]-dimethylammonium; chloride] |  |
| 91 | 19 | O=S(=O)(Nc1ccc2c(c1)OCO2)c1cccc(-c2ccc(F)cc2)c1 [Compound 186, 4′-fluoro-biphenyl-3-sulfonic acid benzo[1,3]dioxol-5-yl-amide] |  |
| 76 |  | O=S(=O)(Nc1ccc2ncsc2c1)c1cccc(-c2ccc(F)cc2)c1 [Compound 189, 4′-fluoro-biphenyl-3-sulfonic acid benzothiazol-6-ylamide] |  |
| 79 | 9.6 | O=S(=O)(Nc1ccc(-n2cnc(Cl)c2Cl)cc1)c1cccc(-c2ccc(F)cc2)c1 [Compound 299] |  |
| 89 | 31 | COc1ccc(NS(=O)(=O)c2cccc(-c3ccc(F)cc3)c2)cc1 [Compound 250] |  |
| 80 | 26 | O=S(=O)(Nc1ccc(-n2cccn2)cc1)c1cccc(-c2ccc(F)cc2)c1 [Compound 297] |  |
| 56 | 29 | Cc1nc2cc(N(C)S(=O)(=O)c3cccc(-c4ccc(F)cc4)c3)ccc2o1 [Compound 295] |  |
| 57 | 26 | CN(C)c1ccc(NS(=O)(=O)c2cccc(-c3cccc(C#N)c3)c2)cc1 [Compound 275] |  |
| 69 | ~30 | Cn1ccc2ccc(NS(=O)(=O)c3cccc(-c4ccc(F)cc4)c3)cc21 [Compound 284, 4′-fluoro-biphenyl-3-sulfonic acid (1-methyl-1H-indol-6-yl)-amide] |  |
| 87 | 18 | Cc1nc2ccc(NS(=O)(=O)c3cccc(-c4ccc(F)cc4)c3)cc2o1 [Compound 187, 4′-fluoro-biphenyl-3-sulfonic acid (2-methyl-benzooxazol-6-yl)-amide] |  |
| 85 | 20 | COc1cc(OC)nc(-c2ccc(NS(=O)(=O)c3cccc(-c4ccc(F)cc4)c3)cc2)n1 [Compound 235] |  |
| 50 | 32 | CC(C)(C)c1cc2cc(NS(=O)(=O)c3cccc(-c4ccc(F)cc4)c3)ccc2[nH]1 [Compound 291] |  |

The next lines start with the compound.

| SMILES | Emax (concentration not given) [%] | EC50 [1] [µM] | also measured |
| --- | --- | --- | --- |
| Cc1cc2cc(N(C)S(=O)(=O)c3cccc(Br)c3)ccc2[nH]1 [Compound 209] |  | 35 | Emax at 50 µM: 64% |
| Cc1cc(C)nc(N(C)c2ccc(NS(=O)(=O)c3ccc(Cl)cc3Cl)cc2)n1 [Compound 50, 2,4-dichloro-N-{4-[(4,6-dimethylpyrimidin-2-yl)(methyl)amino]phenyl}benzenesulphonamide] | 60 | 17 |  |
| Cc1cc(F)ccc1-c1cccc(S(=O)(=O)N(C)c2ccc(N(C)C)cc2)c1 [Compound 321] | 55 | 6.3 |  |
| COc1cc(OC)nc(-c2ccc(NS(=O)(=O)c3ccc4ccccc4c3)cc2)n1 [Compound 266] | 70 | 18 |  |
| CN(c1ccc2c(c1)c1ccccc1n2C)S(=O)(=O)c1ccc(Cl)cc1Cl [Compound 320] | 45 | 10 |  |
| CN(C)c1ccc(NS(=O)(=O)c2cc(-c3ccc(F)cc3)c(-c3ccc(F)cc3)s2)cc1 [Compound 317] | 45 | 44 |  |
| CN(C)c1ccc(NS(=O)(=O)c2ccc(-c3ccc(F)cc3)s2)cc1 [Compound 306] |  | 24 | Emax at 50 µM: 67% |
| CN(C)c1ccc(NS(=O)(=O)c2cccc(-c3ccc(F)c(F)c3)c2)cc1 [Compound 263] |  |  | EC50 (EC50 in cell adhesion assay): 26 µM; Emax: 88% |
| Cc1cc(C)nc(N(C)c2ccc(N(C)S(=O)(=O)c3ccc(Cl)cc3Cl)cc2)n1 [Compound 302] | 57 | 24 |  |
| Cc1cc2cc(NS(=O)(=O)c3cccc(Br)c3)ccc2[nH]1 [Compound 197, 3-bromo-N-(2-methyl-1H-indol-5-yl)-benzenesulfonamide] | 74 |  |  |
| O=S(=O)(Nc1ccc2[nH]ccc2c1)c1ccc(Cl)cc1Cl [Compound 134, 2,4-dichloro-N-(1H-indol-5-yl)-benzenesulfonamide] | 40 | 10 |  |
| CN(C)c1ccc(NS(=O)(=O)c2cc(Br)c(F)cc2F)cc1 [Compound 192, 5-bromo-N-[4-(dimethylamino)phenyl]-2,4-difluoro benzene sulfonamide] | 75 | 39 |  |
| O=S(=O)(Nc1ccc(-n2cccc2)cc1)c1ccc(Cl)cc1Cl [Compound 163, 2,4-dichloro-N-(4-pyrrol-1-yl-phenyl)-benzenesulfonamide] |  | 32 | Emax at 50 µM: 66% |
| COc1cc(OC)nc(-c2ccc(NS(=O)(=O)c3ccc(Cl)c(Cl)c3)cc2)n1 [Compound 255] |  | 17 | Emax at 50 µM: 88% |
| Cc1cc2c(n1-c1ccc(NS(=O)(=O)c3ccc(-c4cnco4)s3)cc1)CC(C)(C)CC2=O [Compound 258] | 66 | 40 |  |
| CN(C)c1ccc(NS(=O)(=O)c2cc(-c3ccc(F)cc3)c(Cl)s2)cc1 [Compound 316, 5-chloro-4-(4-fluoro-phenyl)-thiophene-2-sulfonic acid (4-dimethylamino-phenyl)-amide] |  | 10 | Emax at 50 µM: 87% |
| Cc1cc2cc(NS(=O)(=O)c3cccc(C(F)(F)F)c3)ccc2[nH]1 [Compound 230] |  | > 30 | Emax at 50 µM: 76% |

| SMILES | Emax (concentration not given) [%] | EC50 [1] [µM] | also measured |
| --- | --- | --- | --- |
| Cc1cc2c(n1-c1ccc(NS(=O)(=O)c3ccc(Cl)c(Cl)c3)cc1)CC(C)(C)CC2=O [Compound 269] | 64 | 19 |  |
| O=S(=O)(Nc1ccc(Nc2nc(Cl)nc(Cl)c2Cl)cc1)c1ccc(Cl)cc1 [Compound 170] |  | 24 | Emax at 40 µM: 85% |
| COc1cccc(-c2cccc(S(=O)(=O)Nc3ccc(N(C)C)cc3)c2)c1 [Compound 204] | 63 | ~25 |  |
| O=S(=O)(Nc1ccc2ncsc2c1)c1cccc(Br)c1 [Compound 139, N-benzolthiazol-6-yl-3-bromo-benzenesulfonamide] | 75 | 46 |  |
| CN(C)c1ccc(N(C)S(=O)(=O)c2ccc(Cl)cc2Cl)cc1 [Compound 223, 2,4-dichloro-N-[4-(dimethylamino)phenyl]-N-methyl benzenesulfonamide] | 82 | 13 |  |
| Cc1cc(F)ccc1-c1ccc(S(=O)(=O)Nc2ccc(N(C)C)cc2)s1 [Compound 307] |  | 20 | Emax at 50 µM: 67% |
| CN(C)c1ccc(NS(=O)(=O)c2cc(-c3ccc(F)cc3)c(F)cc2F)cc1 [Compound 202] | 91 | 27 |  |
| Cc1cc(C)nc(Nc2ccc(NS(=O)(=O)c3ccc(Cl)cc3Cl)cc2)n1 [Compound 182] | 77 | 25 |  |
| Cc1cc2cc(NS(=O)(=O)c3ccc4oc(=O)ccc4c3)ccc2[nH]1 [Compound 234] | 85 | 35 |  |
| O=S(=O)(Nc1ccc(-n2cnc(Cl)c2Cl)cc1)c1ccc2ccccc2c1 [Compound 171] | 79 | 20 |  |
| Cc1ccc(C)n1-c1ccc(NS(=O)(=O)c2ccc(Cl)cc2Cl)cc1 [Compound 213] |  | 25 | Emax at 50 µM: 71% |
| CC(C)(C)c1cc2cc(NS(=O)(=O)c3ccc(Cl)cc3)ccc2[nH]1 [Compound 173] |  | 35 | Emax at 40 µM: 59% |
| COc1cc(OC)nc(-c2ccc(NS(=O)(=O)c3ccc(-c4cnco4)s3)cc2)n1 [Compound 286, 5-oxazol-5-yl-thiophene-2-sulfonic acid [4-(4,6-dimethoxypyrimidin-2-yl)-phenyl]-amide] | 72 | 37 |  |
| CSc1nc2ccc(NS(=O)(=O)c3ccc(Cl)cc3Cl)cc2s1 [Compound 132] | 90 | 40 |  |
| Cc1nc2ccc(NS(=O)(=O)c3cccc(Br)c3)cc2s1 [Compound 195] | 60 | 49 |  |
| Cc1cc2c(n1-c1ccc(NS(=O)(=O)c3ccc(C(F)(F)F)cc3Cl)cc1)CC(C)(C)CC2=O [Compound 283, 2-chloro-4-trifluoromethyl-N-[4-(2,6,6-trimethyl-4-oxo-4,5,-6,7-tetrahydro-indol-1-yl)-phenyl]-benzenesulfonamide] | 63 | 23 |  |
| COc1cc(OC)nc(-c2ccc(NS(=O)(=O)c3ccc(Cl)cc3Cl)cc2)n1 [Compound 164, 2,4-dichloro-N-[4-(4,6-dimethoxy-pyrimidin-2-yl)-phenyl]-benzenesulfonamide] |  | 21 | Emax at 50 µM: 85% |
